Our source for the EC50, IC50 and CC50 values is patent publication US11236087B2, “Highly active pyrazolo-piperidine substituted indole-2-carboxamides active against the hepatitis B virus (HBV)” (AiCuris GmbH & Co. KG, priority 2017, dated 2022).

One data set has as its system HBV. In words: Determination of HBV DNA from the supernatants of HepAD38 cells (anti-HBV activity). The class given is cell-based, hepatitis B virus. Particulars: Hepatitis B virus, 144 h; HBV DNA in HepAD38 supernatant, day 6, qPCR; read-out: Cell Activity (EC50). The procedure, abridged: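 HepAD38 cells, tetracycline withdrawn to induce HBV, treated with serial half-log compound dilutions; on day 6 HBV DNA purified from filtered supernatant and quantified by real-time PCR against HBV plasmid standards; EC50 from relative copy numbers by non-linear regression, three experiments in triplicate.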

Another data set has as its target T1, HBV core protein (UniProt P03146).
T1 construct: fused on or other part: BODIPY-FL maleimide label on the C-terminal Cys150
Description: Biochemical capsid assembly assay (fluorescence quenching). Also on record: species or system hepatitis B virus. Particulars: read-out: Assembly Activity (IC50); BODIPY-FL labelled core protein, 300 μM NaCl, read 6 min after start. The gist of the method: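 Purified E. coli-expressed HBV core protein (aa 1-149 plus Cys150), BODIPY-FL maleimide-labelled, at 1.0-2.0 μM in 50 mM HEPES pH 7.5 with 0.5% DMSO was used. Compounds were tested at 8 concentrations (0.5-log dilutions from 100, 31.6 or 10 μM). Assembly was started with NaCl ([…]), and fluorescence quenching was read after 6 min (ex 477/em 525 nm). EC50 was determined by non-linear regression.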

Data set [1] is described as follows: Cell viability assay (AlamarBlue) in HepAD38 cells. Particulars: human.

T1 sequence (P03146 whole entry, looked up, the tested form may be a part): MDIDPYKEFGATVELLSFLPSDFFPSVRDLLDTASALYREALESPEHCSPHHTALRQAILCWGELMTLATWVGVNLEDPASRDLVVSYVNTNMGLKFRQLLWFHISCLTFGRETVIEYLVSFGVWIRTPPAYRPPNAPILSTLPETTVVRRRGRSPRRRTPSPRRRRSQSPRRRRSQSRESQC

With `COCC1(N(C)C(=O)c2n[nH]c3c2CN(C(=O)c2cc4c(C(C)(F)F)cc(F)cc4[nH]2)CC3)CC1` [Example 205, 5-[4-(1,1-difluoroethyl)-6-fluoro-1H-indole-2-carbonyl]-N-[1-(methoxymethyl)cyclopropyl]-N-methyl-1H,4H,5H,6H,7H-pyrazolo[4,3-c]pyridine-3-carboxamide], in the data set on HBV, the EC50 is < 1000 nM. Besides, at HBV core protein, the IC50 was < 5 µM. Moreover, the CC50 at 6 days in data set [1] is > 10 µM.
For the molecule `O=C(c1cc2ccccc2[nH]1)N1CCc2[nH]nc(C3CCC3)c2C1` [Example 167, 2-{3-cyclobutyl-1H,4H,5H,6H,7H-pyrazolo[4,3-c]pyridine-5-carbonyl}-1H-indole], in the data set with HBV, the EC50 was < 1000 nM. In addition, on HBV core protein, the IC50 was < 5 µM. Moreover, the CC50 at 6 days in data set [1] is > 10 µM.
For `COCC1(N(C)C(=O)c2n[nH]c3c2CN(C(=O)c2cc4c(C(F)(F)F)cccc4[nH]2)CC3)CC1` [Example 302, N-[1-(methoxymethyl)cyclopropyl]-N-methyl-5-[4-(trifluoromethyl)-1H-indole-2-carbonyl]-1H,4H,5H,6H,7H-pyrazolo[4,3-c]pyridine-3-carboxamide], the EC50 in the data set on HBV is < 1000 nM. On HBV core protein, the IC50 is < 5 µM. In addition, the CC50 at 6 days in data set [1] was > 10 µM.
`Cc1cccc2[nH]c(C(=O)N3CCc4[nH]nc(C(=O)N(C)OCCO)c4C3)cc12` [Example 197, N-(2-hydroxyethoxy)-N-methyl-5-(4-methyl-1H-indole-2-carbonyl)-1H,4H,5H,6H,7H-pyrazolo[4,3-c]pyridine-3-carboxamide]: the EC50 in the data set with HBV is < 1000 nM. Moreover, on HBV core protein, the IC50 was < 5 µM. Also, the CC50 at 6 days in data set [1] was > 10 µM.
As for `CCN(C)C(=O)c1n[nH]c2c1CN(C(=O)c1cc3ccccc3[nH]1)CC2` [Example 103, N-ethyl-5-(1H-indole-2-carbonyl)-N-methyl-1H,4H,5H,6H,7H-pyrazolo[4,3-c]pyridine-3-carboxamide], in the data set on HBV, the EC50 is < 1000 nM. The IC50 at HBV core protein was < 5 µM. In addition, in data set [1], the CC50 at 6 days is > 100 µM.
`C[C@H]1CCCCN1C(=O)c1n[nH]c2c1CN(C(=O)c1cc3ccccc3[nH]1)CC2` [Example 147, 2-{3-[(2S)-2-methylpiperidine-1-carbonyl]-1H,4H,5H,6H,7H-pyrazolo[4,3-c]pyridine-5-carbonyl}-1H-indole]: the EC50 with HBV is < 1000 nM. The IC50 at HBV core protein lay within 5 to 10 µM. For the same molecule, the CC50 at 6 days in data set [1] was > 10 µM.
For `O=C(c1cc2ccccc2[nH]1)N1CCc2[nH]nc(NCc3ccccc3)c2C1` [Example 91, N-benzyl-5-(1H-indole-2-carbonyl)-1H,4H,5H,6H,7H-pyrazolo[4,3-c]pyridin-3-amine] the same measures were 1000 to 25000 nM, 5 to 10 µM and > 100 µM.
Consider `O=C(c1cc2ccccc2[nH]1)N1CCc2[nH]nc(C(=O)N3CC4COCC4C3)c2C1` (stereo not drawn) [Example 153, 2-(3-{hexahydro-1H-furo[3,4-c]pyrrole-5-carbonyl}-1H,4H,5H,6H,7H-pyrazolo[4,3-c]pyridine-5-carbonyl)-1H-indole], for which the EC50 with HBV was in the range of 1000 to 25000 nM. Moreover, the IC50 at HBV core protein is < 100 µM. Also, in data set [1], the CC50 at 6 days was > 10 µM.
As for `COCC1(N(C)C(=O)c2n[nH]c3c2CN(C(=O)c2cc4ccc(Cl)cc4[nH]2)CC3)CC1` [Example 263, 5-(6-chloro-1H-indole-2-carbonyl)-N-[1-(methoxymethyl)cyclopropyl]-N-methyl-1H,4H,5H,6H,7H-pyrazolo[4,3-c]pyridine-3-carboxamide], in the data set with HBV, the EC50 was < 1000 nM. For the same molecule, the 50% inhibitory concentration (IC50) at HBV core protein is < 5 µM. In data set [1], the CC50 at 6 days is > 10 µM.
As to `CCOCC1(N(C)C(=O)c2[nH]nc3c2CN(C(=O)c2cc4c(C)cc(F)cc4[nH]2)CC3)CC1` [Example 366, N-[1-(ethoxymethyl)cyclopropyl]-5-(6-fluoro-4-methyl-1H-indole-2-carbonyl)-N-methyl-2H,4H,5H,6H,7H-pyrazolo[4,3-c]pyridine-3-carboxamide], the EC50 with HBV was < 1000 nM. The IC50 on HBV core protein was < 5 µM. In data set [1], the CC50 at 6 days was > 10 µM.
On to `CN(CCO)C(=O)c1n[nH]c2c1CN(C(=O)c1cc3ccc(Br)cc3[nH]1)CC2` [Example 29, 5-(6-bromo-1H-indole-2-carbonyl)-N-(2-hydroxyethyl)-N-methyl-1H,4H,5H,6H,7H-pyrazolo[4,3-c]pyridine-3-carboxamide], for which the EC50 with HBV was < 1000 nM. Besides, the IC50 at HBV core protein was < 5 µM. Besides, in data set [1], the CC50 at 6 days was > 10 µM.
Take `O=C(c1cc2ccccc2[nH]1)N1CCc2[nH]nc(C(=O)N3CC(CO)C3)c2C1` [Example 45, {1-[5-(1H-indole-2-carbonyl)-1H,4H,5H,6H,7H-pyrazolo[4,3-c]pyridine-3-carbonyl]azetidin-3-yl}methanol]: the EC50 in the data set with HBV lay in the range of 1000 to 25000 nM. Besides, the IC50 at HBV core protein is < 100 µM. For the same molecule, the CC50 at 6 days in data set [1] was > 100 µM.
Turning to `O=C(c1cc2ccccc2[nH]1)N1CCc2[nH]nc(C(=O)N3CCC(F)(F)CC3)c2C1` [Example 190, 2-[3-(4,4-difluoropiperidine-1-carbonyl)-1H,4H,5H,6H,7H-pyrazolo[4,3-c]pyridine-5-carbonyl]-1H-indole], the EC50 in the data set with HBV is < 1000 nM. On HBV core protein, the IC50 was < 5 µM. Also, the CC50 at 6 days in data set [1] is > 10 µM.
With `CN(OCCO)C(=O)c1n[nH]c2c1CN(C(=O)c1cc3ccccc3[nH]1)CC2` [Example 198, N-(2-hydroxyethoxy)-5-(1H-indole-2-carbonyl)-N-methyl-1H,4H,5H,6H,7H-pyrazolo[4,3-c]pyridine-3-carboxamide], in the data set with HBV, the EC50 is < 1000 nM. Also, on HBV core protein, the IC50 is < 5 µM. Also, the CC50 at 6 days in data set [1] is > 10 µM.
Regarding `COCC1(N(C)C(=O)c2n[nH]c3c2CN(C(=O)c2cc4c(Cl)ccc(F)c4[nH]2)CC3)CC1` [Example 306, 5-(4-chloro-7-fluoro-1H-indole-2-carbonyl)-N-[1-(methoxymethyl)cyclopropyl]-N-methyl-1H,4H,5H,6H,7H-pyrazolo[4,3-c]pyridine-3-carboxamide], the EC50 with HBV was < 1000 nM. Further, on HBV core protein, the IC50 was < 5 µM. Also, the CC50 at 6 days in data set [1] was > 10 µM.
In the case of `O=C(c1cc2ccccc2[nH]1)N1CCc2[nH]nc(C(=O)N3CCC[C@H]3CO)c2C1` [Example 180, [(2S)-1-[5-(1H-indole-2-carbonyl)-1H,4H,5H,6H,7H-pyrazolo[4,3-c]pyridine-3-carbonyl]pyrrolidin-2-yl]methanol], the EC50 in the data set on HBV was 1000 to 25000 nM. At HBV core protein, the IC50 was < 100 µM. In data set [1], the CC50 at 6 days was > 10 µM.
On to `O=C(c1cc2ccccc2[nH]1)N1CCc2[nH]nc(C(=O)N3C[C@@H]4[C@@H](O)[C@@H]4C3)c2C1` [Example 176, (±)-3-[5-(1H-indole-2-carbonyl)-1H,4H,5H,6H,7H-pyrazolo[4,3-c]pyridine-3-carbonyl]-3-azabicyclo[3.1.0]hexan-6-ol], for which, in the data set on HBV, the half-maximal effective concentration (EC50) was 1000 to 25000 nM. The IC50 at HBV core protein fell in the range of 5 to 10 µM. For the same molecule, the CC50 at 6 days in data set [1] was > 10 µM.
Consider `O=C(c1cc2ccc(Br)cc2[nH]1)N1CCc2[nH]ncc2C1` [Example 119, 6-bromo-2-{1H,4H,5H,6H,7H-pyrazolo[4,3-c]pyridine-5-carbonyl}-1H-indole], for which the EC50 in the data set with HBV is < 1000 nM. Further, the IC50 at HBV core protein was < 5 µM. Also, in data set [1], the CC50 at 6 days is > 100 µM.
With `CON(C)C(=O)c1n[nH]c2c1CN(C(=O)c1cc3c(F)ccc(F)c3[nH]1)CC2` [Example 125, 5-(4,7-difluoro-1H-indole-2-carbonyl)-N-methoxy-N-methyl-1H,4H,5H,6H,7H-pyrazolo[4,3-c]pyridine-3-carboxamide], the EC50 in the data set with HBV is < 1000 nM. Further, the IC50 on HBV core protein is < 5 µM. In addition, in data set [1], the CC50 at 6 days was > 100 µM.
For the molecule `CCc1cc(F)cc2[nH]c(C(=O)N3CCc4[nH]nc(C(=O)N(C)CCO)c4C3)cc12` [Example 10, 5-(4-ethyl-6-fluoro-1H-indole-2-carbonyl)-N-(2-hydroxyethyl)-N-methyl-1H,4H,5H,6H,7H-pyrazolo[4,3-c]pyridine-3-carboxamide], the EC50 in the data set with HBV is < 1000 nM. Also, the IC50 at HBV core protein is < 5 µM. The CC50 at 6 days in data set [1] was > 10 µM.
Regarding `CCOC(=O)c1n[nH]c2c1CN(C(=O)c1cc3ccccc3[nH]1)CC2` [Example 140, ethyl 5-(1H-indole-2-carbonyl)-1H,4H,5H,6H,7H-pyrazolo[4,3-c]pyridine-3-carboxylate], the EC50 in the data set on HBV is < 100000 nM. Further, at HBV core protein, the IC50 is < 5 µM. The CC50 at 6 days in data set [1] is > 100 µM.
With `CN(CC(=O)OC(C)(C)C)C(=O)c1n[nH]c2c1CN(C(=O)c1cc3ccccc3[nH]1)CC2` [Example 171, tert-butyl 2-{1-[5-(1H-indole-2-carbonyl)-1H,4H,5H,6H,7H-pyrazolo[4,3-c]pyridin-3-yl]-N-methylformamido}acetate], the EC50 with HBV fell in the range of 1000 to 25000 nM. Further, on HBV core protein, the IC50 was < 100 µM. The CC50 at 6 days in data set [1] is > 10 µM.
On to `COCC1(N(C)C(=O)c2n[nH]c3c2CN(C(=O)c2cc4c(F)cc(Cl)cc4[nH]2)CC3)CC1` [Example 305, 5-(6-chloro-4-fluoro-1H-indole-2-carbonyl)-N-[1-(methoxymethyl)cyclopropyl]-N-methyl-1H,4H,5H,6H,7H-pyrazolo[4,3-c]pyridine-3-carboxamide], for which the EC50 in the data set with HBV was < 1000 nM. Moreover, the IC50 at HBV core protein was < 5 µM. The CC50 at 6 days in data set [1] was > 10 µM.
